Laboratory results taken from patent publication US8492559B2, “Substituted indole compounds” (Gruenenthal GmbH, priority 2009, dated 2013).

These compounds were tested against T1, B1R receptor of the rat (rB1R) (Rattus norvegicus, UniProt P97583) (assay: Functional investigation on the bradykinin 1 receptor (B1R), FLIPR Ca2+ assay, rB1R cells). Details: CHO-K1, 10 μM test substance; CHO K1 cells with rat B1R; agonist Des-Arg9 bradykinin; % of maximum achievable inhibition; read-out: B1R antagonism, rat [10 μM] % inhibition.
T1 construct: expressed in transfected cells; host or cells: CHO K1 cells
T1 sequence (P97583 1-337): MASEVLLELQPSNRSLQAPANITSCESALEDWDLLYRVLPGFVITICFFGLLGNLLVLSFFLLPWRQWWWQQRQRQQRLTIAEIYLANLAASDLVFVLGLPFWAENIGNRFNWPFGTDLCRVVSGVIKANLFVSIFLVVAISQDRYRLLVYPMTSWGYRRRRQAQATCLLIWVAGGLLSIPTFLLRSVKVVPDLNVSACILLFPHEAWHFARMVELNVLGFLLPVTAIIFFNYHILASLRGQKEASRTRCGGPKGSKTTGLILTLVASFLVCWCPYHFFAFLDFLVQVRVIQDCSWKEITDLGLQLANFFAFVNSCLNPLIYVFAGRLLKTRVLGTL
Assay type: cell-based
Method: The indication in % activation is based on the Ca^2+ signal after addition of Lys-Des-[…] bradykinin (0.5 nM) or Des-[…] bradykinin (100 nM). Antagonists lead to a suppression of the Ca^2+ influx following administration of the agonist. The % inhibition in comparison with the maximum achievable inhibition is indicated. […] According to this assay, the Ca^2+ inflow through the channel is quantified with the aid of a Ca^2+-sensitive dye (Fluo-4 type, Molecular Probes Europe BV, Leiden, Netherlands) in a fluorescent imaging plate reader (FLIPR, Molecular Devices, Sunnyvale, USA). […] For functional investigations these cells are plated-out onto black 96-well plates with a clear base (BD Biosciences, Heidelberg, Germany or Greiner, Frickenhausen, Germany) in a density of 20,000-35,000 cells/well. Overnight the cells are incubated at 37° C. and 5% CO2 in culture medium (hB1R cells: Ham's Nutrient Mixture F12, Gibco Invitrogen GmbH, Karlsruhe, Germany or DMEM, Sigma-Aldrich, Taufkirchen, Germany; rB1R cells: D-MEM/F12, Gibco Invitrogen, Karlsruhe, Germany) with 10 vol. % FBS (foetal bovine serum, Gibco Invitrogen GmbH, Karlsruhe, Germany or PAN Biotech GmbH, Aidenbach, Germany). On the following day the cells are loaded with 2.13 μM Fluo-4 (Molecular Probes Europe BV, Leiden, Netherlands) in HBSS buffer (Hank's buffered saline solution, Gibco Invitrogen GmbH, Karlsruhe, Germany) with 2.5 mM probenecid (Sigma-Aldrich, Taufkirchen, Germany) and 10 mM HEPES (Sigma-Aldrich, Taufkirchen, Germany) for 60 min at 37° C. […] Sigma-Aldrich, Taufkirchen, Germany), 5.6 mM glucose and 0.05% gelatine (Merck KGaA, Darmstadt, Germany) is added. After a further incubation of 20 minutes at room temperature, the plates are inserted into the FLIPR for Ca^2+ measurement. Alternatively they are washed with buffer A (15 mM HEPES, 80 mM NaCl, 5 mM KCl, 1.2 mM CaCl2, 0.7 mM MgSO4, 2 g/l glucose, 2.5 mM probenecid) and loaded with buffer A with added 2.5 μM Fluo-4 and 0.025% Pluronic F127 (Sigma-Aldrich, Taufkirchen, Germany). The cells are then washed twice with buffer A and incubated for 30 minutes with buffer A, which additionally contains 0.05% BSA and 0.05% gelatine, at room temperature and then used for Ca^2+ measurement in the FLIPR. The Ca^2+-dependent fluorescence is measured here before and after addition of substances (λex=488 nm, λem=540 nm). The quantification is performed by measuring the highest fluorescence intensity (FC, fluorescence counts) over time. The FLIPR protocol comprises two additions of substance. […] Lys-Des-[…] bradykinin>=50 nM; rB1R: […] Antagonists lead to a suppression of the Ca^2+ inflow. The % inhibition in comparison with the maximum achievable inhibition is calculated. The substances are added in varying concentrations in order to determine the IC50 value. Double or triple determinations (n=2 or n=3) are performed and these are repeated in at least one further independent experiment (N>=2).

Row | SMILES | inhibition at 10 µM [%]
1 | COc1cc(C)c(S(=O)(=O)Nc2ccc3ccn(CCC(=O)NCCN4CCC(c5cccs5)(N(C)C)CC4)c3c2)c(C)c1 [G_CC-22, N-[2-(4-Dimethylamino-4-thiophen-2-yl-piperidin-1-yl)-ethyl]-3-[6-[[(4-methoxy-2,6-dimethyl-phenyl)sulfonyl]amino]-1H-indol-1-yl]-propionamide] | 59
2 | COc1cc(C)c(S(=O)(=O)Nc2ccc3ccn(CCC(=O)NCCC4CCN(c5ccncc5)CC4)c3c2)c(C)c1 [G_CC-23, 3-[6-[[(4-Methoxy-2,6-dimethyl-phenyl)sulfonyl]amino]-1H-indol-1-yl]-N-[2-(1-pyridin-4-yl-piperidin-4-yl)-ethyl]-propionamide] | 63
3 | Cc1cc(S(=O)(=O)Nc2ccc3ccn(CC(=O)NCCC4CCN(c5ccncc5)CC4)c3c2)c(C)cc1Cl [G_CC-24, 2-[6-[[(4-Chloro-2,5-dimethyl-phenyl)sulfonyl]amino]-1H-indol-1-yl]-N-[2-(1-pyridin-4-yl-piperidin-4-yl)-ethyl]-acetamide] | 89
4 | Cc1cc(S(=O)(=O)Nc2cccc3ccn(CC(=O)NCCN4CCC(c5cccs5)(N(C)C)CC4)c23)c(C)cc1Cl [G_CC-27, 2-[7-[[(4-Chloro-2,5-dimethyl-phenyl)sulfonyl]amino]-1H-indol-1-yl]-N-[2-(4-dimethylamino-4-thiophen-2-yl-piperidin-1-yl)-ethyl]-acetamide] | 56
5 | COc1cc(C)c(S(=O)(=O)Nc2ccc3ccn(CC(=O)N(C)CCCN4CCC(c5cccs5)(N(C)C)CC4)c3c2)c(C)c1 [G_CC-29, N-[3-(4-Dimethylamino-4-thiophen-2-yl-piperidin-1-yl)-propyl]-2-[6-[[(4-methoxy-2,6-dimethyl-phenyl)sulfonyl]amino]-1H-indol-1-yl]-N-methyl-acetamide] | 92
6 | COc1cc(C)c(S(=O)(=O)Nc2ccc3ccn(CC(=O)NCCN4CCC(c5cccs5)(N(C)C)CC4)c3c2)c(C)c1 [G_CC-30, N-[2-(4-Dimethylamino-4-thiophen-2-yl-piperidin-1-yl)-ethyl]-2-[6-[[(4-methoxy-2,6-dimethyl-phenyl)sulfonyl]amino]-1H-indol-1-yl]-acetamide] | 53
7 | COc1cc(C)c(S(=O)(=O)Nc2cccc3ccn(CC(=O)N4CCC5(CC4)C(=O)N(C)CC5c4ccc(F)cc4)c23)c(C)c1 (centres unmarked) [G_CC-31, N-[1-[2-[1-(4-Fluorophenyl)-3-methyl-4-oxo-3,8-diazaspiro[4.5]decan-8-yl]-2-oxo-ethyl]-1H-indol-7-yl]-4-methoxy-2,6-dimethyl-benzenesulfonic acid amide] | 91
8 | COc1cc(C)c(S(=O)(=O)Nc2cccc3ccn(CC(=O)N4CC5CC4CN5Cc4ccncc4)c23)c(C)c1 (centres unmarked) [G_CC-34, 4-Methoxy-2,6-dimethyl-N-[1-[2-oxo-2-[2-(pyridin-4-yl-methyl)-2,5-diazabicyclo[2.2.1]heptan-5-yl]-ethyl]-1H-indol-7-yl]-benzenesulfonic acid amide] | 58
9 | COc1cc(C)c(S(=O)(=O)Nc2ccc3ccn(CCC(=O)N4CCC5(CC4)CCN(c4ccncc4)CC5)c3c2)c(C)c1 [G_CC-35, 4-Methoxy-2,6-dimethyl-N-[1-[3-oxo-3-(3-pyridin-4-yl-3,9-diazaspiro[5.5]undecan-9-yl)-propyl]-1H-indol-6-yl]-benzenesulfonic acid amide] | 72
10 | Cc1cc(S(=O)(=O)Nc2ccc3ccn(CC(=O)N4CCC5(CC4)CCN(c4ccncc4)CC5)c3c2)c(C)cc1Cl [G_CC-36, 4-Chloro-2,5-dimethyl-N-[1-[2-oxo-2-(3-pyridin-4-yl-3,9-diazaspiro[5.5]undecan-9-yl)-ethyl]-1H-indol-6-yl]-benzenesulfonic acid amide] | 63
11 | O=C(Cn1ccc2cccc(NS(=O)(=O)c3cccc4ccccc34)c21)N1CCC2(CC1)CCN(c1ccncc1)CC2 [G_CC-38, N-[1-[2-Oxo-2-(3-pyridin-4-yl-3,9-diazaspiro[5.5]undecan-9-yl)-ethyl]-1H-indol-7-yl]-naphthalene-1-sulfonic acid amide] | 96
12 | COc1cc(C)c(S(=O)(=O)Nc2cccc3ccn(CCC(=O)N4CCN(C5CCN(C)CC5)CC4)c23)c(C)c1 [G_CC-40, 4-Methoxy-2,6-dimethyl-N-[1-[3-[4-(1-methyl-piperidin-4-yl)-piperazin-1-yl]-3-oxo-propyl]-1H-indol-7-yl]-benzenesulfonic acid amide] | 86
13 | COc1cc(C)c(S(=O)(=O)Nc2cccc3ccn(CCC(=O)N4CCC(N5CCN(C)CC5)CC4)c23)c(C)c1 [G_CC-42, 4-Methoxy-2,6-dimethyl-N-[1-[3-[4-(4-methyl-piperazin-1-yl)-piperidin-1-yl]-3-oxo-propyl]-1H-indol-7-yl]-benzenesulfonic acid amide] | 66

More lines, now with the values ahead:

Row | inhibition at 10 µM [%] | SMILES
14 | 58 | CN(CCCN1CCC(c2cccs2)(N(C)C)CC1)C(=O)Cn1ccc2cccc(NS(=O)(=O)c3cccc4ccccc34)c21 [G_CC-25, N-[3-(4-Dimethylamino-4-thiophen-2-yl-piperidin-1-yl)-propyl]-N-methyl-2-[7-[(naphthalen-1-ylsulfonyl)amino]-1H-indol-1-yl]-acetamide]
15 | 81 | Cc1cc(S(=O)(=O)Nc2cccc3ccn(CC(=O)N(C)CCCN4CCC(c5cccs5)(N(C)C)CC4)c23)c(C)cc1Cl [G_CC-26, 2-[7-[[(4-Chloro-2,5-dimethyl-phenyl)sulfonyl]amino]-1H-indol-1-yl]-N-[3-(4-dimethylamino-4-thiophen-2-yl-piperidin-1-yl)-propyl]-N-methyl-acetamide]
16 | 82 | Cc1cc(S(=O)(=O)Nc2cccc3ccn(CC(=O)NCCC4CCN(c5ccncc5)CC4)c23)c(C)cc1Cl [G_CC-28, 2-[7-[[(4-Chloro-2,5-dimethyl-phenyl)sulfonyl]amino]-1H-indol-1-yl]-N-[2-(1-pyridin-4-yl-piperidin-4-yl)-ethyl]-acetamide]
17 | 71 | COc1cc(C)c(S(=O)(=O)Nc2ccc3ccn(CC(=O)N4CC5CC4CN5Cc4ccc(F)cc4)c3c2)c(C)c1 (centres unmarked) [G_CC-33, N-[1-[2-[2-[(4-Fluorophenyl)-methyl]-2,5-diazabicyclo[2.2.1]heptan-5-yl]-2-oxo-ethyl]-1H-indol-6-yl]-4-methoxy-2,6-dimethyl-benzenesulfonic acid amide]
18 | 91 | O=C(Cn1ccc2ccc(NS(=O)(=O)c3ccccc3C(F)(F)F)cc21)N1CCC2(CC1)CCN(c1ccncc1)CC2 [G_CC-37, N-[1-[2-Oxo-2-(3-pyridin-4-yl-3,9-diazaspiro[5.5]undecan-9-yl)-ethyl]-1H-indol-6-yl]-2-(trifluoromethyl)-benzenesulfonic acid amide]
19 | 95 | Cc1cc(S(=O)(=O)Nc2cccc3ccn(CC(=O)N4CCC5(CC4)CCN(c4ccncc4)CC5)c23)c(C)cc1Cl [G_CC-39, 4-Chloro-2,5-dimethyl-N-[1-[2-oxo-2-(3-pyridin-4-yl-3,9-diazaspiro[5.5]undecan-9-yl)-ethyl]-1H-indol-7-yl]-benzenesulfonic acid amide]
20 | 76 | COc1cc(C)c(S(=O)(=O)Nc2cccc3ccn(CCC(=O)N4CCC(CCN5CCCC5)CC4)c23)c(C)c1 [G_CC-41, 4-Methoxy-2,6-dimethyl-N-[1-[3-oxo-3-[4-(2-pyrrolidin-1-yl-ethyl)-piperidin-1-yl]-propyl]-1H-indol-7-yl]-benzenesulfonic acid amide]
